Earlier results as cited in patent US8974824B2, “Lanthanum composition” (Mylan Laboratories Ltd., priority 2008, dated 2015).

Conditions: pH range of 3 to 5 in gastric fluid; Lanthanum in two-fold molar excess to phosphate

Question: For `[La]` [Lanthanum], which available phosphate bound is on record?
Answer: The available phosphate bound was “approximately 97%”.
